Assay results taken from patent US7132547B2, “Preventives/remedies for urinary disturbance” (priority 2001, dated 2006).
Counter-ions that a name gives are not always drawn.

Columns and labels:
Hartley male guinea pigs = experiment: Effect on blood pressure in anesthetized guinea pigs; format: in vivo, guinea pig
Description: Hartley male guinea pigs (Slc) weighing 300 to 350 g was anesthetized with urethane (1.2 g/kg), and retained, a cervical region was incised to expose a left common carotid artery. A polyethylene tube filled with physiological saline containing heparin (10 U.I./ml) was inserted into an artery, and blood pressure was measured with a pressure transducer. A cannulae for administering test compound was inserted into a vein at an end of left hind leg, and a test compound dissolved in distilled water was administered therethrough at 0.5 mL/kg. The blood pressure was recorded at 20 Hz using an analogue data inputting apparatus (MP-100, BIOPAC Systems), and analyzed by analyzing software (AcqKnowledge 3.5.3, BIOPAC Systems). Example compound and tamsulosin were studied for a dose at which effects were recognized in the aforementioned test a (Pressure Flow Study), and an average blood pressure just before administration of test compound and an average blood pressure 15 minutes after administration were measured. Data were statistically treated by Paired t-test.

[1] = system: Hartley male guinea pigs loaded with phenylephrine; experiment: Pressure Flow Study using guinea pigs loaded with phenylephrine; format: in vivo, guinea pig; settings: i.v., tamsulosin 0.01 mg/kg, Example 20 0.1 mg/kg, urethane-anesthetized, phenylephrine 3 μg/animal/min
Description: Hartley male guinea pigs (Slc) weighing 300 to 350 g was anesthetized with urethane (1.2 g/kg, i.p.), and a median was incised to expose bladder. Two polyethylene tubes were inserted into bladder, and one of them was used for injecting a physiological saline and the other was used for measuring a bladder internal pressure. A cannulae was inserted into a left femoral vein, and phenylephrine was continuously administered intravenously at 3 μg/animal/min until the completion of experiment. A physiological saline was injected into bladder at a rate of 0.3 mL/min, and injection was stopped when urination was confirmed. The urinated urine weight was measured with an electron balance (HX-400, A & D) at real time. Analogue data of bladder internal pressure and urine weight were inputted into an AD transducer (MP-100, BIOPAC Systems), and digital signals were analyzed with exclusive analyzing software (AcqKnowledge 3.5.3, BIOPAC Systems). The sampling rate of data was 10 Hz, and data of urination amount and urine flow rate were subjected to a lowcut filter at 0.5 Hz in order to remove noises. The value of urine weight was differentiated to calculate urine flow rate (Q), and maximum urine flow rate (Qmax) at urination and bladder internal pressure (Pves (Qmax)) at maximum urine flow were calculated. The urination weight 1 g was converted into 1 mL to calculate the urination amount, and divided by bladder volume to obtain voiding efficiency (Voiding Efficiency). Example compound was dissolved in DMSO, and the solution was intravenously administered at 0.5 mL/kg. 10 minutes after administration of test compound, urinary reflection was recorded again, and change in urine flow rate (ΔQmax), and change in bladder internal pressure (ΔPves(Qmax)) and voiding efficiency were assessed. The change in urine flow rate (ΔQmax) and change in bladder internal pressure (ΔPves. (Qmax)) were an amount of change (Δ value) obtained by subtracting each value before administration of test compound from each value after administration, and voiding efficiency was assessed by a relative value (% of pre-value) of after administration of test compound relative to before administration. Tamsulosin which is a known α1 receptor antagonist was measured similarly. A significance diffenence was tested by a Dunnett test by comparing with each value of a vehicle (DMSO)-administered group.

[2] = molecular target: T1, human erythrocyte-derived acetylcholinesterase (Homo sapiens, UniProt P22303); experiment: Measurement of acetylcholinesterase inhibitory activity (acetylthiocholine / Ellman method); format: biochemical; settings: 50% inhibition concentration, repeated at least three times, read-out: AchE: IC50
T1 construct: Human erythrocyte-drived acetylcholinesterase (Sigma) was dissolved in distilled water; purchased Sigma; host or cells: human erythrocytes (natural source)
Description: a) Measurement of Acetylcholinesterase Inhibitory Activity
Acetylcholinesterase inhibitory activity of Example compounds was measured using human erythrocyte-derived acetylcholinesterase by an acetylthiocholine method (Ellman method).
Human erythrocyte-drived acetylcholinesterase (Sigma) was dissolved in distilled water to the concentration of 0.2 IU/mL to obtain an enzyme specimen. 20 μL of a drug solution, 30 μL of 80 mM Tris-HCL (pH 7.4), 50 μL of an enzyme specimen and 50 μL of 5 mM 5,5-dithio-bis (2-nitrobenzoic acid)(Sigma) were dispensed on a 96-well microplate, and this was shaken for 10 seconds. 50 μL of 4 mM acetylthiocholine iodide (Sigma) was added, this was shaken again and, immediately after, increase in absorbance at 414 nm was measured at 30 second intervals for 10 minutes. Enzyme activity was measured by the following equation: R=5.74×10^−7×ΔA (wherein R represents enzyme activity (mol), and ΔA represents increase in absorbance at 414 nm)
Regarding each compound, the experiment was repeated at least three times to obtain 50% inhibition concentration (IC50). According to the similar method to the above-mentioned, acetylcholinesterase inhibitory activity of distigmine which is a known acetylcholinesterase inhibitor was measured.

[3] = molecular target: T2, human adrenaline α1A receptor (Homo sapiens, UniProt P35348); experiment: Measurement of α1A receptor binding inhibitory activity ([3H]-Prazosin binding to CHO-K1 membrane fraction); settings: concentration reducing [3H]-Prazosin (2.5 nM) binding to the membrane fraction to 50%
T2 construct: expressed in transfected cells; membrane fraction
T2 sequence (P35348 1-466): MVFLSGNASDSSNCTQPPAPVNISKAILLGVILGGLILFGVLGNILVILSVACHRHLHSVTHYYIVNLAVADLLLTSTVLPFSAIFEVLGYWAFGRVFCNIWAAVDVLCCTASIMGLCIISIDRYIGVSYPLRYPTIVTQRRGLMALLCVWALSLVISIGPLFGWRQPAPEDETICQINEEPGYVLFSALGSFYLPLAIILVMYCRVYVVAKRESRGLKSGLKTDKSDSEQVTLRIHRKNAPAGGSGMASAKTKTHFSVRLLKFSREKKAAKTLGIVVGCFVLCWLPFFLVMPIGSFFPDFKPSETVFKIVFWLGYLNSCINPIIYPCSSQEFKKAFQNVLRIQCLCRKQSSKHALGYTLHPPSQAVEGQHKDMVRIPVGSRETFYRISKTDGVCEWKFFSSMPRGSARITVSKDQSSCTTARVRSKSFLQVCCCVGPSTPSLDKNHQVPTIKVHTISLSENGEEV
Description: b) Measurement of α1A Receptor Binding Inhibitory Activity
The following gene manipulation method was carried out according to the method described in a textbook (Miniatis et al., Molecular Cloning, Cold Spring Harbor Laboratory, 1989) or the method described in protocol attached to a reagent.
(i) Preparation of Expression Plasmid for Human Adrenaline α1A Receptor
An adrenaline α1A receptor gene was cloned from a human liver cDNA by a PCR method. A PCR reaction was performed with Gene Amp PCR System 9700 (Applied Biosystems) using 200 ng of a human liver cDNA library (TAKARA SHUZO Co., Ltd.) as a template and using TaKaRa Pyrobest DNA Polymerase (TAKARA SHUZO CO., Ltd) and adding each 50 pmol of a primer set 5′-[…]-3′ [SEQ ID No.: 1] and 5′-[…]-3[SEQ ID No.: 2] prepared making reference to a nucleotide sequence of an adrenaline α1A receptor gene which was reported by Hirasawa A. et al. (Biochem. Biophys. Res. Commun., 195, 902–909(1993)) (reaction condition: 45 cycles of 15 seconds at 94° C., and 3 minutes 30 seconds at 68° C.).
The obtained PCR fragment was digested with restriction enzymes Eco RI (TAKARA SHUZO Co. Ltd.) and Sal I. (TAKARA SHUZO Co. Ltd.), and agarose gel electrophoresis was performed to recover DNA fragments. The DNA fragments were mixed with an animal cell expression plasmid pMSR αneo (Administration No. A99–0013) which had been digested with Eco RI and Sal I, ligated with DNA Ligation Kit Ver. 2 (TAKARA SHUZO Co. Ltd.), and a competent cell of Esherichia coli JM109 was transformed to obtain a plasmid pMSR αneoA dreα1A.
(ii) Introduction of Plasmid for Expression of Human Adrenaline α1A Receptor into CHO-K1 Cell and Preparation of Membrane Fraction
CHO-K1 cells which had been subcultured in a 150 cm^2 culturing flask (Corning Coaster) using Ham F12 medium (Invitrogen) containing 10% fetal bovine serum (TRACE SCIENTIFIC) was peeled with 0.5 g/L trypsin-0.2 g/L EDTA(Invitrogen), cells were washed with D-PBS(−) (Invitrogen), centrifuged (1000 rpm, 5 min.), and suspended in D-PBS(−). […]

[4] = 10 minutes after administration minus before

T1 sequence (P22303 32-617 isoform P22303-2 limits assumed): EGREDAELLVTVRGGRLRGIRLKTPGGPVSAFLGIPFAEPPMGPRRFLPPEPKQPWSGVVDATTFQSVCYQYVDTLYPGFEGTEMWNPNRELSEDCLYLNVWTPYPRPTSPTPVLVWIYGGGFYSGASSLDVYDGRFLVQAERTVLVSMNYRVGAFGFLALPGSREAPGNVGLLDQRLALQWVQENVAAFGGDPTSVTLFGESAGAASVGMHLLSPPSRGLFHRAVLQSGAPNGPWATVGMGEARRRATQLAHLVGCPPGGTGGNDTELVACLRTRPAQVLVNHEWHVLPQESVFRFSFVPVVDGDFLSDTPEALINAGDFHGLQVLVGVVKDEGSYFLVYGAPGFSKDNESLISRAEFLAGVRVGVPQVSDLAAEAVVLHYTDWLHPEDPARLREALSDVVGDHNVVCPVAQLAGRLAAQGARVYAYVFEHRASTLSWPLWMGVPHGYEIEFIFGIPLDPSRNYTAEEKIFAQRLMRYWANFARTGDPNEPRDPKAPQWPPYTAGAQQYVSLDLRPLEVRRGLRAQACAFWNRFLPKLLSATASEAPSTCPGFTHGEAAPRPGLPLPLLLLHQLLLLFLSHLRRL

In the case of `CCOc1ccccc1OCCN[C@H](C)Cc1ccc(OC)c(S(N)(=O)=O)c1` [tamsulosin, Tamsulosin, reference compound], the “reduction of blood pressure” value (Hartley male guinea pigs; 0.01 mg/kg, i.v.) is reported as “about 40%”, the “Blood pressure, after administration” value (Hartley male guinea pigs; average blood pressure 15 minutes after i.v. administration, tamsulosin 0.01 mg/kg, Example 20 0.1 mg/kg) is reported as 32.9 ± 3.0 mmHg and the “Blood pressure, before administration” value (Hartley male guinea pigs; average blood pressure just before i.v. administration, tamsulosin 0.01 mg/kg, Example 20 0.1 mg/kg) is reported as 54.5 ± 2.5 mmHg. The “change in bladder internal pressure (ΔPves(Qmax))” value [1, 4] was −3.56 ± 1.09 cmH2O, the “change in maximum urine flow rate (ΔQmax)” value [1, 4] was 0.036 ± 0.014 mL/s and the “voiding efficiency (% of pre-value)” value ([1]; after administration relative to before) was 118.5 ± 13.4 %.
`CN(CCCCCCN(C)C(=O)Oc1ccc[n+](C)c1)C(=O)Oc1ccc[n+](C)c1` [Distigmine, distigmine, reference compound] gave an IC50 [2] of 723 nM.
For `O=C(CCC1CCN(CCc2cccc(F)c2)CC1)c1cc2c3c(c1)CCN3C(=O)CC2` [Example 84, 8-(3-[1-[2-(3-Fluorophenyl)ethyl]-4-piperidinyl]propanoyl)-1,2,5,6-tetrahydro-4H-pyrrolo[3,2,1-ij]quinolin-4-one hydrochloride], the IC50 [3] was 236 nM and the IC50 [2] was 169 nM.
Compound `CC(C)NS(=O)(=O)c1cc(C(=O)CCCCNCCc2ccccc2Cl)cc2c1OCC2.Cl` has a melting point of 149 to 151 °C.
`Cl.NS(=O)(=O)c1cc(C(=O)CCCCNCCc2ccccc2Cl)cc2c1OCC2` gave a melting point of 160 to 170 °C.
Work on `COc1ccccc1N1CCN(CCCNc2cc(=O)n(C)c(=O)n2C)CC1` [urapidil, reference compound] yielded an IC50 [3] of 357 nM.
In the case of `COc1ccc(C(=O)CCCCCNCCc2ccccc2)cc1NS(C)(=O)=O.Cl`, the melting point is reported as 136 to 138 °C.
Work on `Cl.O=C(CCCCCNCCc1ccccc1Cl)c1cc2c3c(c1)CCN3C(=O)CC2` yielded a melting point of 172 to 174 °C.
`Cl.O=C(CCC1CCN(CCc2ccccc2O)CC1)c1cc2c3c(c1)CCN3C(=O)CC2` gave a melting point of 220 to 222 °C.
With `CN(CCCCC(=O)c1ccc2c(c1)CNC(=O)N2)CCc1ccccc1Cl.Cl` the melting point was 192 to 195 °C (dec.).
